Test results taken from publication PMC8364686, “Safety, tolerability, pharmacokinetics and pharmacodynamics of single oral doses of BI 187004, an inhibitor of 11beta-hydroxysteroid dehydrogenase-1, in healthy male volunteers with overweight or obesity” (Clinical Diabetes and Endocrinology, 2021).

Assay: Plasma pharmacokinetics of BI 187004 after single oral doses (LC–MS/MS)
Settings: male, human, plasma, po; for concentration at 36 h: planned time 36 h; for concentration at 48 h: planned time 48 h; for concentration at 72 h: planned time 72 h; for concentration at 96 h: planned time 96 h; for concentration at 0.5 h: planned time 0.5 h; for concentration at 1 h: planned time 1 h; for concentration at 1.5 h: planned time 1.5 h; for concentration at 2 h: planned time 2 h; for concentration at 2.5 h: planned time 2.5 h; for concentration at 3 h: planned time 3 h; for concentration at 4 h: planned time 4 h; for concentration at 5 h: planned time 5 h; for concentration at 6 h: planned time 6 h; for concentration at 8 h: planned time 8 h; for concentration at 10 h: planned time 10 h; for concentration at 12 h: planned time 12 h
[1] = 160 mg, BI 187004 plasma concentrations, 160 mg single oral, Max
[2] = 160 mg, BI 187004 plasma concentrations, 160 mg single oral, Mean
[3] = 160 mg, BI 187004 plasma concentrations, 160 mg single oral, Median
[4] = 160 mg, BI 187004 plasma concentrations, 160 mg single oral, Min
[5] = 160 mg, BI 187004 plasma concentrations, 160 mg single oral, gMean
[6] = 240 mg, BI 187004 plasma concentrations, Max, 240 mg single oral
[7] = 240 mg, BI 187004 plasma concentrations, Mean, 240 mg single oral
[8] = 240 mg, BI 187004 plasma concentrations, Median, 240 mg single oral
[9] = 240 mg, BI 187004 plasma concentrations, Min, 240 mg single oral
[10] = 240 mg, BI 187004 plasma concentrations, gMean, 240 mg single oral

For `N#Cc1ccc2c(c1)[C@H]1CCCN(C(=O)c3ccc4[nH]cnc4c3)[C@H]1C2` [BI 187004], the concentration at 36 h [1] was 1390 nM, the concentration at 36 h [2] was 716 nM and the concentration at 36 h [3] was 604 nM. For the same compound, the concentration at 36 h [4] was 476 nM, the concentration at 36 h [5] was 669 nM and the concentration at 48 h [1] was 1000 nM. For the same compound, the concentration at 48 h [2] was 457 nM, the concentration at 48 h [3] was 352 nM and the concentration at 48 h [4] was 329 nM. It also gave a concentration at 48 h [5] of 414 nM, a concentration at 72 h [1] of 312 nM and a concentration at 72 h [2] of 139 nM. For the same compound, the concentration at 72 h [3] was 108 nM, the concentration at 72 h [4] was 85.9 nM and the concentration at 72 h [5] was 125 nM. The concentration at 96 h [1] was 46.8 nM, the concentration at 96 h [2] was 33.8 nM and the concentration at 96 h [3] was 31.7 nM. It also gave a concentration at 96 h [4] of 28 nM, a concentration at 96 h [5] of 33.2 nM and a concentration at 96 h (160 mg, BI 187004 plasma concentrations, 160 mg single oral, individual subjects) of 30.2 nM. The concentration at 24 h (160 mg, C24 gMean (%gCV), 160 mg single oral dose) was 1630 nM, the AUC(0-inf) (240 mg) was 109 µM·h and the AUC(0-t) (240 mg) was 71.7 µM·h. For the same compound, the Cmax (240 mg) was 7120 nM, the Tmax (240 mg) was 1 h and the Vd/F (240 mg) was 124 L. For the same compound, the half-life (240 mg) was 13.4 h, the concentration at 24 h (240 mg, BI 187004 plasma concentrations, 240 mg single oral, planned time 24 h, individual subjects) was 2180 nM and the concentration at 0.5 h [6] was 8440 nM. For the same compound, the concentration at 1 h [6] was 10700 nM, the concentration at 1.5 h [6] was 9030 nM and the concentration at 2 h [6] was 9220 nM. It also gave a concentration at 2.5 h [6] of 8510 nM, a concentration at 3 h [6] of 6980 nM and a concentration at 4 h [6] of 8420 nM. The concentration at 5 h [6] was 6780 nM, the concentration at 6 h [6] was 6370 nM and the concentration at 8 h [6] was 5380 nM. For the same compound, the concentration at 10 h [6] was 5800 nM, the concentration at 12 h [6] was 3900 nM and the concentration at 24 h (240 mg, BI 187004 plasma concentrations, Max, 240 mg single oral, planned time 24 h) was 2630 nM. The concentration at 36 h [6] was 1340 nM, the concentration at 48 h [6] was 794 nM and the concentration at 72 h [6] was 323 nM. The concentration at 96 h [6] was 181 nM, the concentration at 0.5 h [7] was 5210 nM and the concentration at 1 h [7] was 7490 nM. The concentration at 1.5 h [7] was 6420 nM, the concentration at 2 h [7] was 6260 nM and the concentration at 2.5 h [7] was 6300 nM. The concentration at 3 h [7] was 5150 nM, the concentration at 4 h [7] was 5510 nM and the concentration at 5 h [7] was 4780 nM. The concentration at 6 h [7] was 4330 nM, the concentration at 8 h [7] was 3850 nM and the concentration at 10 h [7] was 3450 nM. For the same compound, the concentration at 12 h [7] was 2590 nM, the concentration at 24 h (240 mg, BI 187004 plasma concentrations, Mean, 240 mg single oral, planned time 24 h) was 2170 nM and the concentration at 36 h [7] was 926 nM. For the same compound, the concentration at 48 h [7] was 508 nM, the concentration at 72 h [7] was 157 nM and the concentration at 96 h [7] was 63.9 nM. For the same compound, the concentration at 0.5 h [8] was 5530 nM, the concentration at 1 h [8] was 8430 nM and the concentration at 1.5 h [8] was 6890 nM. The concentration at 2 h [8] was 6780 nM, the concentration at 2.5 h [8] was 7270 nM and the concentration at 3 h [8] was 5840 nM. The concentration at 4 h [8] was 5680 nM, the concentration at 5 h [8] was 5430 nM and the concentration at 6 h [8] was 5270 nM. The concentration at 8 h [8] was 4370 nM, the concentration at 10 h [8] was 3700 nM and the concentration at 12 h [8] was 2890 nM. For the same compound, the concentration at 24 h (240 mg, BI 187004 plasma concentrations, Median, 240 mg single oral, planned time 24 h) was 2320 nM, the concentration at 36 h [8] was 887 nM and the concentration at 48 h [8] was 461 nM. It also gave a concentration at 72 h [8] of 98.9 nM, a concentration at 96 h [8] of 36.4 nM and a concentration at 0.5 h [9] of 130 nM. The concentration at 1 h [9] was 440 nM, the concentration at 1.5 h [9] was 811 nM and the concentration at 2 h [9] was 543 nM. For the same compound, the concentration at 2.5 h [9] was 605 nM, the concentration at 3 h [9] was 388 nM and the concentration at 4 h [9] was 575 nM. It also gave a concentration at 5 h [9] of 494 nM, a concentration at 6 h [9] of 452 nM and a concentration at 8 h [9] of 181 nM. The concentration at 10 h [9] was 313 nM, the concentration at 12 h [9] was 258 nM and the concentration at 24 h (240 mg, BI 187004 plasma concentrations, Min, 240 mg single oral, planned time 24 h) was 1530 nM. For the same compound, the concentration at 36 h [9] was 567 nM, the concentration at 48 h [9] was 255 nM and the concentration at 72 h [9] was 54.1 nM. The concentration at 96 h [9] was 15.8 nM, the concentration at 0.5 h [10] was 3180 nM and the concentration at 1 h [10] was 5340 nM. It also gave a concentration at 1.5 h [10] of 5150 nM, a concentration at 2 h [10] of 4710 nM and a concentration at 2.5 h [10] of 4840 nM. For the same compound, the concentration at 3 h [10] was 3840 nM, the concentration at 4 h [10] was 4280 nM and the concentration at 5 h [10] was 3700 nM.
